Measured values taken from patent US10435399B2, “HDAC6 inhibitory heterocyclic compound” (TAKEDA PHARMACEUTICAL COMPANY LIMITED, priority 2017, dated 2019).

Experiments:
[1] = tested on: bone-marrow cells; assay: Micronucleus test in rats (bone-marrow cells); assay type: in vivo, rats (Crl:CD(SD)); conditions: rats, 1000 mg/kg and 2000 mg/kg once daily for 3 days
Protocol: Combination Assay of Micronucleus Test and Comet Assay in Rats […] Bone-marrow smear for micronucleus analysis was prepared as follows. Femur was cut at both ends, and washed with fetal bovine serum (FBS) in a centrifuging tube, and the obtained bone-marrow fluid was centrifuged for 5 min at room temperature. The supernatant was removed, and the cell sediment was suspended in the remaining small amount of the supernatant. A part of the suspension was dropped on a glass slide, and a cover glass was placed thereon to give a bone-marrow smear. The smear was dried well, and fixed with methanol for 5 min. The bone-marrow smear of negative control, that of treatment groups as well as the previously prepared bone-marrow smear of positive control group were encoded, and observed by the blind method. An acridine orange solution (40 μg/mL) was dropped (several drops) to the smear just before observation, and a cover glass was placed thereon. […] In addition, as an index of growth inhibitory effect on bone-marrow cell, total of 500 erythrocytes [immature erythrocytes+mature erythrocytes (ME)] per individual were observed, and immature erythrocyte rate (IE %) relative to the total number of erythrocytes was calculated.

[2] = tested on: P301S mutant human tau (4R1N) Tg mouse; assay: Cognitive improvement action in neurodegenerative disease model mouse (novel object recognition test); assay type: in vivo
Protocol: Cognitive Improvement Action in Neurodegenerative Disease Model Mouse
A drug was suspended in 0.5% methyl cellulose to prepare a suspension for administration. The suspension was repeatedly administered into six month-old male P301S mutant human tau (4R1N) Tg mouse once a day for three months, and novel object recognition test was performed by the following method. The test is comprised of memory acquisition trial of object on the first day, and memory retention trial of familiar object and novel object on the second day. Drug was administered into the mouse 1 hr before the trials on both days. For acquisition trial, The mouse was put in a test box (30 cm×30 cm×25 cm) in which two identical objects were placed, and contact frequency and contact duration with the objects for 5 min were measured under 50 lux. […] Next day, one of the objects was replaced with new object, and contact frequency and contact duration with each object for 5 min were measured. Novelty Discrimination Index (NDI) as an index of cognitive function was calculated by novel object contact […]/(novel object contact duration+familiar object contact duration)%. […] After F test for vehicle administration wild-type group and vehicle administration Tg group, the significant difference between the two groups was analyzed by Student t-test or Welch test (indicated as ** p<0.01). […]

[3] = tested on: acetylated tubulin in brain (hippocampus); assay: Increase in acetylated tubulin in brain (hippocampus ELISA); assay type: in vivo, C57BL/6J mouse; conditions: mouse hippocampus, oral 10 mg/kg, 4 h after administration, vs vehicle
Protocol: Increase in Acetylated Tubulin in Brain
A drug was suspended in 0.5% methyl cellulose to prepare a suspension for administration, having a concentration shown in Table 3. The suspension was orally administered into 8 to […] male C57BL/6J mouse, and after the passage of the time shown in Table 3, the brain was taken out, and hippocampus was obtained. The hippocampus was homogenized under RIPA extract (Wako) to which protease inhibitor (Thermo) and phosphatase inhibitor (Thermo) were added, and centrifuged in 15,000 g for 15 min to prepare a protein extract. The acetylated tubulin and total tubulin in the extract were detected by the following ELISA method. Tubulin antibody (Sigma) was immobilized on 96-well plate (Microlite2+, Thermo), and the plate was stored at 4° C. […] The plate was washed, HRP substrate was added thereto, and the luminescence was measured using a plate reader. The acetylated tubulin and total tubulin were quantified from logistics curve based on dilution series using the mouse hippocampus tissue extract, and the acetylated tubulin relative to total tubulin was calculated, and evaluated as an relative tubulin acetylation level. […] After F test for vehicle group and drug group, the significant difference between the two groups was analyzed by Student t-test or Welch test (indicated as * p<0.05, ** p<0.01). […]

O=C1c2cc(-c3nnc(C(F)F)o3)cnc2CN1[C@@H]1CCCC[C@H]1NC(=O)C(F)(F)C(F)(F)F [Example 489, N-((1R,2R)-2-(3-(5-(difluoromethyl)-1,3,4-oxadiazol-2-yl)-5-oxo-5,7-dihydro-6H-pyrrolo[3,4-b]pyridin-6-yl)cyclohexyl)-2,2,3,3,3-pentafluoropropanamide]
genotoxic potential (judgement, micronucleus test and comet assay combined) [1]: negative
micronucleus formation in bone-marrow cell [1]: not induced
Novelty Discrimination Index (NDI) ([2]; 1 mg/kg once a day for three months): significant improvement in NDI was observed
Novelty Discrimination Index (NDI) ([2]; 3 mg/kg once a day for three months): significant improvement in NDI was observed
relative tubulin acetylation level (acetylated tubulin relative to total tubulin) [3]: increase in significant tubulin acetylation level was observed
